Measurements from patent publication US9637486B2, “Btk inhibitors” (MERCK SHARP & DOHME CORP., priority 2013, dated 2017).

biological target: BTK enzyme (hBTK, full-length recombinant) (Homo sapiens (Human), UniProt Q06187); assay: Btk enzyme activity assay, LANCE TR-FRET; type: biochemical; conditions: 50 pM hBTK, 2 μM biotin-A5-peptide, 25 μM ATP; 60 minute compound & enzyme incubation; read-out: BTK binding IC50
Method: Also BTK enzymatic activity was determined with the LANCE (Lanthanide Chelate Excite) TR-FRET (Time-resolved fluorescence resonance energy transfer) assay. […] Following a 60 minute compound & enzyme incubation, each reaction was initiated by the addition of 2.5 μL 1× kinase buffer containing 8 μM biotinylated “A5” peptide (Biotin-EQEDEPEGDYFEWLE-NH2), and 100 μM ATP. The final reaction in each well of 10 μL consists of […], 2 μM biotin-A5-peptide, and 25 μM ATP. Phosphorylation reactions were allowed to proceed for 120 minutes. Reactions were immediately quenched by the addition of 20 uL of 1× quench buffer (15 mM EDTA, 25 mM Hepes 7.3, and 0.1% Triton X-100) containing detection reagents (0.626 nM of LANCE-Eu-W1024-anti-phosphoTyrosine antibody, PerkinElmer and 86.8 nM of Streptavidin-conjugated Dylight 650, Dyomics/ThermoFisher Scientific). After 60 minutes incubation with detection reagents, reaction plates were read on a PerkinElmer EnVision plate reader using standard TR-FRET protocol. Briefly, excitation of donor molecules (Eu-chelate:anti-phospho-antibody) with a laser light source at 337 nm produces energy that can be transferred to Dylight-650 acceptor molecules if this donor:acceptor pair is within close proximity. Fluorescence intensity at both 665 nm (acceptor) and 615 nm (donor) are measured and a TR-FRET ratio calculated for each well (acceptor intensity/donor intensity). […] (Log10) compound concentrations. Btk Enzyme Activity Assay Method BTK enzymatic activity was determined with the LANCE (Lanthanide Chelate Excite) TR-FRET (Time-resolved fluorescence resonance energy transfer) assay. […] Following a 60 minute compound & enzyme incubation, each reaction was initiated by the addition of 2.5 μL 1× kinase buffer containing 8 μM biotinylated “A5” peptide (Biotin-EQEDEPEGDYFEWLE-NH2), and 100 μM ATP. The final reaction in each well of 10 μL consists of 50 pM hBTK, 2 μM biotin-A5-peptide, and 25 μM ATP. Phosphorylation reactions were allowed to proceed for 120 minutes. Reactions were immediately quenched by the addition of 20 uL of 1× quench buffer (15 mM EDTA, 25 mM Hepes 7.3, and 0.1% Triton X-100) containing detection reagents (0.626 nM of LANCE-Eu-W1024-anti-phosphoTyrosine antibody, PerkinElmer and 86.8 nM of Streptavidin-conjugated Dylight 650, Dyomics/ThermoFisher Scientific). After 60 minutes incubation with detection reagents, reaction plates were read on a PerkinElmer EnVision plate reader using standard TR-FRET protocol. Briefly, excitation of donor molecules (Eu-chelate:anti-phospho-antibody) with a laser light source at 337 nm produces energy that can be transferred to Dylight-650 acceptor molecules if this donor:acceptor pair is within close proximity. Fluorescence intensity at both 665 nm (acceptor) and 615 nm (donor) are measured and a TR-FRET ratio calculated for each well (acceptor intensity/donor intensity). […] (Log10) compound concentrations.

Sequence of BTK enzyme (hBTK, full-length recombinant) (Q06187 whole entry): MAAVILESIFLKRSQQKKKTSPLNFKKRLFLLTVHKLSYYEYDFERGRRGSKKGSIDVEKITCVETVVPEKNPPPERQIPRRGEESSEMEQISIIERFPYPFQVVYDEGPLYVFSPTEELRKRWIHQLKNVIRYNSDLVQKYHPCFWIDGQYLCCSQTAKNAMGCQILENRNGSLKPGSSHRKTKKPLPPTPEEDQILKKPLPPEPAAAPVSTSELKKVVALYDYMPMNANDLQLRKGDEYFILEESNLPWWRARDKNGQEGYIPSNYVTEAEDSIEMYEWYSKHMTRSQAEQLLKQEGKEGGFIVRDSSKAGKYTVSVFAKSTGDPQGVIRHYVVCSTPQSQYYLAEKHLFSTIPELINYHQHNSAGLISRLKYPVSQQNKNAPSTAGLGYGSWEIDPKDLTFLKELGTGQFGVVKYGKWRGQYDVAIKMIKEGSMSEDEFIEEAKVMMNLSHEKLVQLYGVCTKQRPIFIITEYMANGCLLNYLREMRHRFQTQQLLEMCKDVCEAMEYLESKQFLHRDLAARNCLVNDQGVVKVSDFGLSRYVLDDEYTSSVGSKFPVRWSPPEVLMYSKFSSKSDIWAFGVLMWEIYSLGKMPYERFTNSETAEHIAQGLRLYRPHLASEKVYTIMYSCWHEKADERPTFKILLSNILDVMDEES

Structure (SMILES)	IC50 [nM]
C[C@@H](O)C(=O)N1C[C@H](c2nn(-c3ccc(Oc4cccc(F)c4)cc3)c3c(N)nccc23)CC[C@@H]1C [Example 29, (2R)-1-[(2S,5R)-5-{7-amino-1-[4-(3-fluorophenoxy)phenyl]-1H-pyrazolo[3,4-c]pyridin-3-yl}-2-methylpiperidin-1-yl]-1-oxopropan-2-ol]	5.8
CC1(C(=O)N2CCC[C@@H](c3nn(-c4ccc(Oc5ccc(F)cc5)cc4)c4c(N)nccc34)C2)COC1 [Example 26, (R)-(3-(7-amino-1-(4-(4-fluorophenoxy)phenyl)-1H-pyrazolo[3,4-c]pyridin-3-yl)piperidin-1-yl)(3-methyloxetan-3-yl)methanone]	56.9
Nc1nccc2c([C@@H]3CCCN(C(=O)C4CC4(F)F)C3)nn(-c3ccc(Oc4ccccc4)cc3)c12 (stereo partly drawn) [Example 4, 3-{(3R)-1-[(2,2-difluorocyclopropyl)carbo-nyl]piperidin-3-yl}-1-(4-phenoxyphenyl)-1H-pyrazolo[3,4-c]pyridin-7-amine]	9.3

Compounds with a lower IC50, results first:

IC50 [nM]	Structure (SMILES)
3.8	C[C@H]1CC[C@@H](c2nn(-c3ccc(Oc4cccc(F)c4)cc3)c3c(N)nccc23)CN1C(=O)C1(C)COC1 [Example 28, 1-[4-(3-fluorophenoxy)phenyl]-3-{(3R,6S)-6-methyl-1-[(3-methyloxetan-3-yl)carbonyl]piperidin-3-yl}-1H-pyrazolo[3,4-c]pyridin-7-amine]
1.7	CC1(C(=O)N2CCC[C@@H](c3nn(-c4ccc(Oc5ccccc5)cc4)c4c(N)nccc34)C2)COC1 [Example 1, (R)-(3-(7-amino-1-(4-phenoxyphenyl)-1H-pyrazolo[3,4-c]pyridin-3-yl)piperidin-1-yl)(3-methyloxetan-3-yl)methanone]
